Source: PubChem BioAssay (NCI)
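Step 1: Grow cells in 96-well plates. Step 2: Expose to compound for 48 hours at 5 concentrations. Step 3: Interpolate endpoints linearly; if unreached, use highest concentration. Here, GI50 denotes the concentration required for 50% inhibition of growth. TGI: concentration producing complete growth inhibition.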

Columns and labels:
Experiment in all cases: NCI anticancer screen, dose series, 48 h
786-0 renal = system: 786-0 renal
A498 renal = system: A498 renal
A549 NSCLC = system: A549 NSCLC
ACHN renal = system: ACHN renal
BT-549 breast = system: BT-549 breast
CAKI-1 renal = system: CAKI-1 renal
CCRF-CEM leukemia = system: CCRF-CEM leukemia
COLO 205 colon = system: COLO 205 colon
DU-145 prostate = system: DU-145 prostate
EKVX NSCLC = system: EKVX NSCLC
HCC-2998 colon = system: HCC-2998 colon
HCT-116 colon = system: HCT-116 colon
HCT-15 colon = system: HCT-15 colon
HL-60(TB) leukemia = system: HL-60(TB) leukemia
HOP-62 NSCLC = system: HOP-62 NSCLC
HOP-92 NSCLC = system: HOP-92 NSCLC
HS 578T breast = system: HS 578T breast
HT29 colon = system: HT29 colon
IGROV1 ovarian = system: IGROV1 ovarian
K-562 leukemia = system: K-562 leukemia
KM12 colon = system: KM12 colon
LOX IMVI melanoma = system: LOX IMVI melanoma
M14 melanoma = system: M14 melanoma
MALME-3M melanoma = system: MALME-3M melanoma
MCF7 breast = system: MCF7 breast
MDA-MB-231 breast = system: MDA-MB-231 breast
MOLT-4 leukemia = system: MOLT-4 leukemia
NCI-H226 lung = system: NCI-H226 lung
NCI-H23 lung = system: NCI-H23 lung
NCI-H460 lung = system: NCI-H460 lung
NCI-H522 lung = system: NCI-H522 lung
NCI/ADR-RES ovarian = system: NCI/ADR-RES ovarian
OVCAR-3 ovarian = system: OVCAR-3 ovarian
OVCAR-4 ovarian = system: OVCAR-4 ovarian
OVCAR-5 ovarian = system: OVCAR-5 ovarian
OVCAR-8 ovarian = system: OVCAR-8 ovarian
PC-3 prostate = system: PC-3 prostate
RPMI-8226 leukemia = system: RPMI-8226 leukemia
RXF 393 renal = system: RXF 393 renal
SF-268 CNS = system: SF-268 CNS
SF-295 CNS = system: SF-295 CNS
SF-539 CNS = system: SF-539 CNS
SK-MEL-2 melanoma = system: SK-MEL-2 melanoma
SK-MEL-28 melanoma = system: SK-MEL-28 melanoma
SK-MEL-5 melanoma = system: SK-MEL-5 melanoma
SK-OV-3 ovarian = system: SK-OV-3 ovarian
SN12C renal = system: SN12C renal
SNB-19 CNS = system: SNB-19 CNS
SNB-75 CNS = system: SNB-75 CNS
SR leukemia = system: SR leukemia
SW-620 colon = system: SW-620 colon
T-47D breast = system: T-47D breast
TK-10 renal = system: TK-10 renal
U251 CNS = system: U251 CNS
UACC-257 melanoma = system: UACC-257 melanoma
UACC-62 melanoma = system: UACC-62 melanoma
UO-31 renal = system: UO-31 renal

SMILES: COc1cc2c(c(OC)c1OC)-c1ccc(NN(C(=O)c3ccccc3)C(=O)c3ccccc3)c(=O)cc1[C@@H](NC(C)=O)CC2 (tested in a mixture with another compound)
- GI50 (786-0 renal): 3.31 µM
- TGI (786-0 renal): 13.4 µM
- GI50 (A498 renal): 3.78 µM
- TGI (A498 renal): 52 µM
- GI50 (A549 NSCLC): 4.02 µM
- TGI (A549 NSCLC): > 100 µM
- GI50 (ACHN renal): 4.27 µM
- TGI (ACHN renal): 24.8 µM
- GI50 (BT-549 breast): 2.63 µM
- TGI (BT-549 breast): 8.15 µM
- GI50 (CAKI-1 renal): 4.62 µM
- TGI (CAKI-1 renal): 47.1 µM
- GI50 (CCRF-CEM leukemia): 3.57 µM
- TGI (CCRF-CEM leukemia): > 100 µM
- GI50 (COLO 205 colon): 3.02 µM
- TGI (COLO 205 colon): 12.2 µM
- GI50 (DU-145 prostate): 3.3 µM
- TGI (DU-145 prostate): > 100 µM
- GI50 (EKVX NSCLC): 8.09 µM
- TGI (EKVX NSCLC): > 100 µM
- GI50 (HCC-2998 colon): 3.23 µM
- TGI (HCC-2998 colon): 12.7 µM
- GI50 (HCT-116 colon): 2.95 µM
- TGI (HCT-116 colon): 8.88 µM
- GI50 (HCT-15 colon): 3.64 µM
- TGI (HCT-15 colon): 14.9 µM
- GI50 (HL-60(TB) leukemia): 2.1 µM
- TGI (HL-60(TB) leukemia): 14.7 µM
- GI50 (HOP-62 NSCLC): 4.54 µM
- TGI (HOP-62 NSCLC): 30.3 µM
- GI50 (HOP-92 NSCLC): 3.84 µM
- TGI (HOP-92 NSCLC): > 100 µM
- GI50 (HS 578T breast): 1.9 µM
- TGI (HS 578T breast): 6.3 µM
- GI50 (HT29 colon): 2.93 µM
- TGI (HT29 colon): 11.1 µM
- GI50 (IGROV1 ovarian): 4.6 µM
- TGI (IGROV1 ovarian): 63 µM
- GI50 (K-562 leukemia): 4.03 µM
- TGI (K-562 leukemia): > 100 µM
- GI50 (KM12 colon): 3.63 µM
- TGI (KM12 colon): 25.7 µM
- GI50 (LOX IMVI melanoma): 4.24 µM
- TGI (LOX IMVI melanoma): 16.5 µM
- GI50 (M14 melanoma): 2.36 µM
- TGI (M14 melanoma): 6.45 µM
- GI50 (MALME-3M melanoma): 17.6 µM
- TGI (MALME-3M melanoma): > 100 µM
- GI50 (MCF7 breast): 3.84 µM
- TGI (MCF7 breast): > 100 µM
- GI50 (MDA-MB-231 breast): 3.39 µM
- TGI (MDA-MB-231 breast): > 100 µM
- GI50 (MOLT-4 leukemia): 4.08 µM
- TGI (MOLT-4 leukemia): > 100 µM
- GI50 (NCI-H226 lung): 10.6 µM
- TGI (NCI-H226 lung): 37.4 µM
- GI50 (NCI-H23 lung): 3.91 µM
- TGI (NCI-H23 lung): 37.6 µM
- GI50 (NCI-H460 lung): 2.98 µM
- TGI (NCI-H460 lung): 11.2 µM
- GI50 (NCI-H522 lung): 2.01 µM
- TGI (NCI-H522 lung): 6.18 µM
- GI50 (NCI/ADR-RES ovarian): 4.37 µM
- TGI (NCI/ADR-RES ovarian): > 100 µM
- GI50 (OVCAR-3 ovarian): 2.8 µM
- TGI (OVCAR-3 ovarian): 13.4 µM
- GI50 (OVCAR-4 ovarian): 7.06 µM
- TGI (OVCAR-4 ovarian): > 100 µM
- GI50 (OVCAR-5 ovarian): 3.95 µM
- TGI (OVCAR-5 ovarian): > 100 µM
- GI50 (OVCAR-8 ovarian): 3.86 µM
- TGI (OVCAR-8 ovarian): 42.7 µM
- GI50 (PC-3 prostate): 4.69 µM
- TGI (PC-3 prostate): > 100 µM
- GI50 (RPMI-8226 leukemia): 4.72 µM
- TGI (RPMI-8226 leukemia): 82.5 µM
- GI50 (RXF 393 renal): 2.24 µM
- TGI (RXF 393 renal): 8 µM
- GI50 (SF-268 CNS): 4.61 µM
- TGI (SF-268 CNS): > 100 µM
- GI50 (SF-295 CNS): 3.81 µM
- TGI (SF-295 CNS): > 100 µM
- GI50 (SF-539 CNS): 3.08 µM
- TGI (SF-539 CNS): 10.5 µM
- GI50 (SK-MEL-2 melanoma): 3.42 µM
- TGI (SK-MEL-2 melanoma): 16.6 µM
- GI50 (SK-MEL-28 melanoma): 8.76 µM
- TGI (SK-MEL-28 melanoma): 29 µM
- GI50 (SK-MEL-5 melanoma): 2.49 µM
- TGI (SK-MEL-5 melanoma): 11 µM
- GI50 (SK-OV-3 ovarian): 2.65 µM
- TGI (SK-OV-3 ovarian): 8.77 µM
- GI50 (SN12C renal): 5.38 µM
- TGI (SN12C renal): > 100 µM
- GI50 (SNB-19 CNS): 6.7 µM
- TGI (SNB-19 CNS): > 100 µM
- GI50 (SNB-75 CNS): 5.08 µM
- TGI (SNB-75 CNS): > 100 µM
- GI50 (SR leukemia): 3.76 µM
- TGI (SR leukemia): > 100 µM
- GI50 (SW-620 colon): 3.73 µM
- TGI (SW-620 colon): 15.3 µM
- GI50 (T-47D breast): 4.71 µM
- TGI (T-47D breast): 42 µM
- GI50 (TK-10 renal): 4.04 µM
- TGI (TK-10 renal): 42.5 µM
- GI50 (U251 CNS): 3.77 µM
- TGI (U251 CNS): 21.3 µM
- GI50 (UACC-257 melanoma): 14.4 µM
- TGI (UACC-257 melanoma): 62.9 µM
- GI50 (UACC-62 melanoma): 4.18 µM
- TGI (UACC-62 melanoma): 42.1 µM
- GI50 (UO-31 renal): 4.59 µM
- TGI (UO-31 renal): 41.6 µM
